Measured values taken from BindingDB's records for patent WO2022109580 (JANSSEN PHARMACEUTICA NV, 2022).

Biological target: T1, Non-receptor tyrosine-protein kinase TYK2 [556-871] (Homo sapiens, UniProt P29597)
T1 construct: 556-871
Test: Probe Displacement Assay
Method: The probe displacement assay is conducted as follows: In a 384-well plate, test compound along with recombinantly expressed His-tagged protein corresponding to amino acids 556-871 of human TYK2 (sequence shown below) at 5 nM, 33 nM probe (BB, preparation described below) and 0.33 mg/mL Yttrium oxide (YOx) His-capture SPA beads (PerkinElmer, RPNQ0276) in IX PBS containing 10 mM MgCl2, 0.1 mg/mL BSA, 0.1 mM TCEP, 0.005% Tween-20, and 1% DMSO (final concentration) were incubated for 10 hours at room temperature. The amount of radiolabeled probe bound to TYK2 was then quantified using a ViewLux Microplate Imager, and the fraction bound by the test compound calculated by comparison to wells containing scale references for 0% and 100% probe displacement. The IC50 value is defined as the concentration of test compound required to inhibit radiolabeled probe binding by 50%.

T1 sequence (P29597 556-871): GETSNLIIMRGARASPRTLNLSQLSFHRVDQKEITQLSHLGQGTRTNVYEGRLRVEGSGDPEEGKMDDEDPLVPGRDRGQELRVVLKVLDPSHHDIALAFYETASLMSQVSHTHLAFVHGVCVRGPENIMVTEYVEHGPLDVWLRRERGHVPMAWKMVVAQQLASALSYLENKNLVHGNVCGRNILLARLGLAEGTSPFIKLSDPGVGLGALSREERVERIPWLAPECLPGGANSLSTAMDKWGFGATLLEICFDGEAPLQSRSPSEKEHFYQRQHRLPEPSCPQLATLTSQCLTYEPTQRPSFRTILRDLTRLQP

| IC50 [nM] | Structure (SMILES) |
| --- | --- |
| 8 | CO[C@]1(c2cc(C)cc(-n3nc(C)c4cnc(NC(N)=O)cc43)n2)CCOC1 [WO2022109580, Example 6] |
| 3 | CO[C@@]1(c2cc(C)cc(-n3nc(C)c4cnc(NC(N)=O)cc43)n2)CCOC1 [WO2022109580, Example 5] |
| 2 | CO[C@@]1(c2cc(C)cc(-n3nc(-c4cnn(C)c4)c4cnc(NC(N)=O)cc43)n2)CCOC1 [WO2022109580, Example 1] |
| 4 | CO[C@]1(c2cc(C)cc(-n3nc(-c4cnn(C)c4)c4cnc(NC(N)=O)cc43)n2)CCOC1 [WO2022109580, Example 2] |
| 1 | CO[C@@]1(c2cc(C)cc(-n3nc(-c4cnoc4)c4cnc(NC(N)=O)cc43)n2)CCOC1 [WO2022109580, Example 3] |
| 2 | CO[C@]1(c2cc(C)cc(-n3nc(-c4cnoc4)c4cnc(NC(N)=O)cc43)n2)CCOC1 [WO2022109580, Example 4] |
| 42 | CO[C@]1(c2cc(C)cc(-c3cc(-c4cnn(C)c4)n4cnc(NC(N)=O)cc34)n2)CCOC1 [WO2022109580, Example 24] |

Second part, the molecule before the results:

| Structure (SMILES) | IC50 [nM] |
| --- | --- |
| CO[C@]1(c2cc(OCC3CS(=O)(=O)C3)cc(-n3nc(C)c4cnc(NC(N)=O)cc43)n2)CCOC1 [WO2022109580, Example 16] | 7 |
| CO[C@@]1(c2cc(C)cc(N3C=C(c4cnn(C)c4)N4C=NC(NC(N)=O)=CC43)n2)CCOC1 (stereo partly specified) [WO2022109580, Example 23] | 5 |
| CO[C@]1(c2cc(OC[C@@H](C)O)cc(-n3nc(C)c4cnc(NC(N)=O)cc43)n2)CCOC1 [WO2022109580, Example 12] | 6 |
| CO[C@@]1(c2cc(OCC3COC3)cc(-n3nc(C)c4cnc(NC(N)=O)cc43)n2)CCOC1 [WO2022109580, Example 13] | 2 |
| CO[C@]1(c2cc(OCC3COC3)cc(-n3cc(C)c4cnc(NC(N)=O)cc43)n2)CCOC1 [WO2022109580, Example 20] | 11 |
| COCCOc1cc(-n2nc(C)c3cnc(NC(N)=O)cc32)nc([C@]2(OC)CCOC2)c1 [WO2022109580, Example 9] | 2 |
| CO[C@@]1(c2cc(OC[C@@H](C)O)cc(-n3nc(C)c4cnc(NC(N)=O)cc43)n2)CCOC1 [WO2022109580, Example 11] | 2 |
| CO[C@@]1(c2cc(C)cc(-n3cc(C)c4cnc(NC(N)=O)cc43)n2)CCOC1 [WO2022109580, Example 17] | 4 |
| CO[C@]1(c2cc(OCC3COC3)cc(-n3nc(C)c4cnc(NC(N)=O)cc43)n2)CCOC1 [WO2022109580, Example 14] | 4 |
| CO[C@@]1(c2cc(OCC3COC3)cc(-n3cc(C)c4cnc(NC(N)=O)cc43)n2)CCOC1 [WO2022109580, Example 19] | 2 |
| COCCOc1cc(-n2nc(C)c3cnc(NC(N)=O)cc32)nc([C@@]2(OC)CCOC2)c1 [WO2022109580, Example 10] | 6 |
| CO[C@]1(c2cc(C)cc(-n3cc(C)c4cnc(NC(N)=O)cc43)n2)CCOC1 [WO2022109580, Example 18] | 8 |
| CO[C@]1(c2cc(C)cc(-c3cc(C)n4cnc(NC(N)=O)cc34)n2)CCOC1 [WO2022109580, Example 25] | 2 |
| CO[C@]1(c2cc(OCC3CS(=O)(=O)C3)cc(-n3cc(C)c4cnc(NC(N)=O)cc43)n2)CCOC1 [WO2022109580, Example 22] | 14 |
